Test results published in paper PMC3344887 (PLoS ONE, 2012).
Like-named read-outs stand apart in the source and are kept apart here.

Legend:
[1] = tested on: healthy subjects; test: Visual Analog Scales, subjective drug effects, clinical study; assay type: in vivo, humans
Method: (§1) The washout periods between the sessions were at least 10 days long.
(§2) Identical placebo (lactose) capsules were prepared. […] Drugs were administered without food.
The psychometric measures included Visual Analog Scales (VAS), [10], the Adjective Mood Rating Scale (AMRS), and 5-Dimensions of Altered States of Consciousness (5D-ASC), [23]. […] The VASs were presented as 100 mm horizontal lines marked “not at all" on the left and “extremely" on the right. The VASs for “closeness to others," “open," and “talkative" were bidirectional (±50 mm). The VASs were administered 4 h before and 0, 0.33, 1, 1.5, 2, 2.5, 3, 3.5, 4, and 5 h after MDMA or placebo administration. […] The AMRS contains subscales for activity, extroversion and introversion, well-being, emotional excitation, anxiety-depression, and dreaminess. The 5D-ASC rating scale measures alterations in mood, perception, experience of self in relation to the environment, and thought disorder. The 5D-ASC rating scale comprises five subscales or dimensions and 11 lower-order scales. The 5D-ASC dimension “oceanic boundlessness" (OB, 27 items) measures derealization and depersonalization associated with positive emotional states, ranging from heightened mood to euphoric exaltation. […] The global ASC score was determined by adding the OB, AED, and VR scores. The 5D-ASC scale was administered 4 h after MDMA or placebo administration.
Clinical data values were transformed to differences from baseline. Peak effects (Emax) were determined for repeated measures. Emax values were compared using General Linear Models repeated-measures analysis of variance, with drug as within-subject factor, using Statistica 6.0 software (StatSoft, Tulsa, OK). Tukey post hoc comparisons were performed based on significant main effects of treatment. Additional analyses of variance were performed, with period as factor to exclude period effects. Correlation analyses were performed using Pearson’s correlations. The criterion for significance was p<0.05. Mean arterial pressure (MAP) was calculated from diastolic blood pressure and systolic blood pressure using the following formula: MAP = DBP+(SBP - DBP)/3.

[2] = tested on: healthy subjects; test: Adverse effects, List of Complaints, clinical study
Method: as §1, §2
Physiologic measures were assessed repeatedly 4, 3, 2, and 1 h before and 0, 0.33, 0.66, 1, 1.5, 2, 2.5, 3, 4, 5, and 6 h after MDMA or placebo administration. Heart rate, systolic blood pressure, and diastolic blood pressure were measured using an OMRON M7 blood pressure monitor (OMRON Healthcare Europe, Hoofddorp, The Netherlands). Measures were taken twice per time point with an interval of 1 min, and the average was used for the analysis. Core (tympanic) temperature was assessed using a GENIUS 2 ear thermometer (Tyco Healthcare Group, Watertown, NY). […] Adverse effects were assessed using the List of Complaints (LC), which consists of 66 items that yield a total adverse effects score and reliably measure physical and general discomfort.

[3] = clinical; details: human, in vivo
Method: as §2
Plasma concentrations of copeptin were also determined in this study as reported elsewhere. […] No hydrolysis was performed. Thus, the values for HMMA represent the drug concentrations of the non-conjugated metabolite. All blood samples were collected on ice and centrifuged within 10 min at 4°C. The plasma was then stored at –20°C until the analysis.
Cmax and tmax were obtained directly from the observed concentration-time curves. […] Terminal elimination half-life (t 1/2) was calculated using λz and the equation t1/2 = ln2/λz. The area under the plasma concentration-time curve up to 6 h (AUC0-6h) was calculated using the linear trapezoidal rule. The AUC0–∞ was determined by extrapolation of AUC0–6h using λz. The PK parameters were determined using the PK functions for Excel (Microsoft, Redmont, CA, USA). Plasma concentrations were only determined up to 6 h after MDMA administration because the aim of the study was to assess potential changes in MDMA plasma levels while relevant pharmacodynamic effects or MDMA were present.

[4] = target: DAT (Homo sapiens, UniProt Q01959); details: % of plasma sample dilution, undiluted plasma = 100%; plasma 120 min after MDMA/placebo
[5] = cited from earlier work
[6] = target: NET (Homo sapiens, UniProt P23975); test: [3H]-NE uptake inhibition, method A (silicon oil); assay type: cell-based; design: expressed in transfected cells; host or cells: HEK 293 cells (Invitrogen), stably transfected
[7] = peak change from baseline, mean±SEM, 16 subjects

NET, sequence (P23975 whole entry): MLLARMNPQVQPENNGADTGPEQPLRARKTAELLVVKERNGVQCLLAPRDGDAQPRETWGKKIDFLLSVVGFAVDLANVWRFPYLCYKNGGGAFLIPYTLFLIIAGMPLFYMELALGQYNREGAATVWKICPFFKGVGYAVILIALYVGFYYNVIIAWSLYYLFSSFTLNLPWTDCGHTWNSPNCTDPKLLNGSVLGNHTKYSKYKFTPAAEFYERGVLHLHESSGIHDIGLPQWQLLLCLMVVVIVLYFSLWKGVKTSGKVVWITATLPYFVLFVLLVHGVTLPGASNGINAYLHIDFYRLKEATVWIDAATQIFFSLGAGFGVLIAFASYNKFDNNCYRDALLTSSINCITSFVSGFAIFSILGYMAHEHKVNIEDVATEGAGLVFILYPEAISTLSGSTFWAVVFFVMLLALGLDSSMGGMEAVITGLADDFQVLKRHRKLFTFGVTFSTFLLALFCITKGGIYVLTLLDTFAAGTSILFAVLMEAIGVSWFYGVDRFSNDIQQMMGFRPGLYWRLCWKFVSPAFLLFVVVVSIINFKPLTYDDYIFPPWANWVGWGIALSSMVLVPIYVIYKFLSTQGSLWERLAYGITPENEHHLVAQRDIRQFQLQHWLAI
DAT, sequence (Q01959 whole entry): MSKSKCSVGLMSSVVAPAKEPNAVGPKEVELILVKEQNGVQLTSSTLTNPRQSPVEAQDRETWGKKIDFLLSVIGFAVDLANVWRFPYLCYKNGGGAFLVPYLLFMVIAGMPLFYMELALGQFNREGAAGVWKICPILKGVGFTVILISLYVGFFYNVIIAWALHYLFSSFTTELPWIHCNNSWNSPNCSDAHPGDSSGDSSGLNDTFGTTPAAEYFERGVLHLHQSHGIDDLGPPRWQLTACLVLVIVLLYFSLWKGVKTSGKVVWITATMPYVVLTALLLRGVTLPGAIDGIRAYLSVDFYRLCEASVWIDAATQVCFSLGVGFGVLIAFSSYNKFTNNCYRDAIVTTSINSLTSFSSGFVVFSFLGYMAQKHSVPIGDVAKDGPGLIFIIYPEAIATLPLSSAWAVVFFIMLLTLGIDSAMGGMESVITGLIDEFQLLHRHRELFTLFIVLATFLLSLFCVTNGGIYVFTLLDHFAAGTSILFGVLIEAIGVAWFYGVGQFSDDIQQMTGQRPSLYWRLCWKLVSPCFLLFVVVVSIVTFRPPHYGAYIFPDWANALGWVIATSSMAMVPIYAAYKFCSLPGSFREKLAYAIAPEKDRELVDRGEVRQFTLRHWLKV

CNC(C)Cc1ccc2c(c1)OCO2 (stereo not drawn) [MDMA, 3,4-methylenedioxymethamphetamine]
Observed time to half-maximal subjective drug effect ([1]; after drug administration): 44 ± 4 min
VAS Any drug effect, Emax [1, 7]: 86.69±3.57
VAS Closeness, Emax [1, 7]: 27.31±3.87
VAS Drug high, Emax [1, 7]: 87.81±4.85
VAS Drug liking, Emax [1, 7]: 90.69±4.82
VAS Good drug effect, Emax [1, 7]: 89.38±4.67
VAS Open, Emax [1, 7]: 32.16±4.29
VAS Stimulated, Emax [1, 7]: 76.31±6.84
VAS Talkative, Emax [1, 7]: 28.81±5.12
List of Complaints (total score), Acute adverse effects ([2]; at 3 h, change from baseline, mean±SEM, 16 subjects): 5.56±1.72
List of Complaints (total score), Sub-acute adverse effects ([2]; at 24 h, change from baseline, mean±SEM, 16 subjects): 3.88±1.09
Adverse effects produced ([2]; clinical study): sweating, difficulty concentrating, thirst, and lack of appetite
Cmax [3]: 254 ± 13.6 ng/mL
Cmax ([3]; 125 mg): 221 ± 11.6 ng/mL
AUC(0-t) ([3]; AUC0-6): 1110 ± 57.2 ng·h/mL
AUC(0-t) ([3]; AUC0-6, Placebo-MDMA session, mean±SEM, n=16): 953 ± 45.9 ng·h/mL
AUC(0-inf) ([3]; AUC(0-∞)): 2910 ± 276 ng·h/mL
half-life ([3]; T1/2): 7.14 ± 0.4 h
half-life ([3]; T1/2, Placebo-MDMA session, mean±SEM, n=16): 8.17 ± 0.74 h
Tmax [3]: 2.66 ± 0.29 h
Tmax ([3]; Placebo-MDMA session, mean±SEM, n=16): 2.34 ± 0.19 h
Ex vivo binding (IC50%) DAT [4]: >25%
T1/2 ([5]; 100 -125 mg dose): 8 to 9 h
Increase of MDMA plasma levels ([5]; pretreatment with paroxetine): 30%
Tmax ([5]; single dose): 2 to 2.4 h
Ki [6]: 470 nM
Potency of NET inhibition relative to SERT ([6]; uptake inhibition): three-fold more potently
